Measurements as given in patent publication US11331368B2, “Angiotensin receptor agonists and uses thereof” (Monash University, priority 2017, dated 2022).

Assays:
[1] = system: male FVB/N mice on high salt diet, liver; assay: High salt (5%) diet intervention model, liver; assay type: in vivo, mouse; conditions: weeks 5-8; peptides 75 pmol/kg/min s.c.; Cand 2 mg/kg/day, captopril 3 mg/kg/day
[2] = system: stroke-prone spontaneously hypertensive rats (SHRSP); assay: Stroke-prone spontaneously hypertensive rats (SHRSP), 4-week infusion; assay type: in vivo, rat; conditions: 75 pmol/kg/min s.c. for 4 weeks
Experimental: FIG. 27: AT2R stimulation by β-Pro^7-Ang III attenuates cardiac fibrosis in stroke-prone spontaneously hypertensive rats (SHRSP). Mean data for cardiac fibrosis determined by picrosirius red staining of transverse heart sections, under bright field microscopy, taken from ˜25-week old, male stroke-prone spontaneously hypertensive rats (SHRSP) that received either saline or β-Pro^7-Ang III (75 pmol/kg/min subcutaneously via osmotic mini-pump) for 4 weeks (n=3-4). Data expressed as mean±s.e.m of percentage positive stained area for fibrosis. **P<0.01 versus saline (unpaired t-test).
For the first time, β-Pro^7-Ang III was tested at the same dose, duration and route of administration (75 pmol/kg/min subcutaneously via osmotic mini-pump for 4 weeks) in adult male stroke-prone spontaneously hypertensive rats (SHRSP).

[3] = system: male FVB/N mice on high salt diet, heart; assay: High salt (5%) diet intervention model, heart; assay type: in vivo, mouse
Outline: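 Male FVB/N mice fed 5% salt diet for 8 weeks (controls 0.35% NaCl); from week 4, AT2R agonist at 75 pmol/kg/min or saline given subcutaneously by osmotic minipump for 4 weeks on continued high salt. Heart collagen by picrosirius red, % interstitial staining averaged over eight fields; immunofluorescence for fibrosis/inflammation markers.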

Arg-Val-Tyr-Ile-His-β-Pro-Phe [βPro-Ang III]
liver fibrosis (picrosirius red, polarized light) [1]: appears to attenuate
liver steatosis (Oil Red O) [1]: partially reversed
SBP in SHRSP [2]: did not affect SBP
cardiac fibrosis (picrosirius red) in SHRSP [2]: significantly reduced cardiac fibrosis
myofibroblast differentiation in heart (α-SMA) ([3]; 75 pmol/kg/min s.c., weeks 5-8): fully reversed the high salt-induced myofibroblast differentiation
cardiac fibrosis (picrosirius red) ([3]; weeks 5-8 of high salt diet, peptides 75 pmol/kg/min s.c. mini-pump, Cand 2 mg/kg/day, captopril 3 mg/kg/day in drinking water): reversed established cardiac fibrosis
